Experimental data reported in US20250027930A1, “SMALL MOLECULES FOR REPROGRAMING ANTI-TUMOR IMMUNITY OF T CELLS” (THE SCRIPPS RESEARCH INSTITUTE, priority 2021, published 2025).

Tests used:
OT-1 cells = test: OT-I-Tcf7GFP splenocyte screen: proliferation and Tim3−TCF-1+ ratio; type: cell-based, mouse; details: Day7, 50 mM
Description: Cell number was recorded on day 3 and day 7. On day 7, cells were stained with anti-CD8a (PerCP-Cy5.5) and anti-Tim3 (BV421) antibodies for flow cytometry or plate reader analysis.
Because TCF1 expression positively correlates with T cell stemness, the greater signal of EGFP a T cell expresses, the less differentiated the T cell is. Furthermore, if the compound also facilitates T cells proliferation, there would be more T cells per well in comparison to the untreated control. Therefore, a compound that not only maintains TCF-1 expression but also facilitates T cell growth would produce the strongest green fluorescence intensity. […] GlcA stands for glucuronic acid.

P14 cells = test: P14 splenocyte in vitro activation, re-stimulation and expansion; type: cell-based, mouse; details: 50 mM; for Fold of proliferation, Normalized to W/O: P14 cells
B16-OVA tumor = type: in vivo, mouse
Description: (§1) Naïve splenocytes from OT-1 mice were stimulated in vitro with OVA257-264 (500 nM) and IL-2 (60 IU/mL) in the presence or absence of an added compound for 3 days at a density of 1 million/mL (100 uL/well in 96/well plate), then expanded for 4 days. On day 7, PD-1, Tim3 and TCF-1 expressions were assessed by flow cytometry by staining cells with anti-CD8a (PerCP-Cy5.5), anti-Tim3 (BV421) and anti-TCF-1 (AF488) antibodies. For adoptive transfer, 0.6M B16-OVA cells (6×10^5) were inoculated subcutaneously 3 to 5 days before transfer in C57BL/6. On the day of adoptive transfer, mice were irradiated with 5 Gy X-ray, randomized according to tumor size, and intravenously injected with 0.2-0.3M of CD8+OT-1 T cells (2×10^5) expanded under different conditions, followed by administration of 50000 IU IL-2 every 12 h for four days. In the control group, mice were injected with cell-free vehicle only. For assessment of adoptive transfer of OT-1 CD8+ T cells activated and expanded by contacting the cells with fructose, on day 9 after transfer, anti-PD-1 (100 ug/mouse) was administered to the mice that had received T cell transfer. For assessment of adoptive transfer of OT-1 CD8+ T cells activated and expanded by contacting cells with Neu5Ac, on day 14 and day 21 after transfer, anti-PD-1 (100 ug/mouse) was administered to the mice that had received T cell transfer. The tumor growth was monitored every 3 to 4 days by measuring tumor size. Percent survival was also monitored and recorded within a period of 40 days post treatment. To evaluate tumor infiltrating OT-1 T cells, 0.6M B16-OVA cells (6×10^5) were inoculated subcutaneously 3 to 5 days before transfer in C57BL/6. On the day of adoptive transfer, mice were irradiated with 5 Gy X-ray, randomized according to tumor size, and intravenously injected with 0.2-0.3M of CD8+OT-1 T cells (2×10^5) expanded under different conditions, followed by administration of 50000 IU IL-2 every 12 h for four days. Tumors were then isolated and assessed for percentage of OT-I T cells from the total CD8+ T cells and OT-1 T cell number per gram of tumor tissue. To evaluate apoptosis, Naïve OT-1 splenocytes were stimulated by OVA257-264 (500 nM) without IL-2 in the presence of absence of sugars for 5 days followed by using Annexin V Apoptosis detection kit (Biolegend). […] To evaluate other cellular characteristics, naïve OT-1 splenocytes were stimulated by OVA257-264 (500 nM) with IL-2 (60 IU/mL) in the presence or absence of sugars for 7 or 8 days. On day 7 or 8 cells were taken and analyzed by assessment of ROS, NADPH/NADP+ ratio, and GSH/GSSG ratio.

OT-1 splenocytes [1] = test: Apoptosis (Annexin V) and IL-2 production of OT-1 splenocytes stimulated without IL-2; type: cell-based, mouse; details: OVA257-264 500 nM without IL-2, 5 days
Description: as §1

OT-1 splenocytes [2] = test: ROS, NADPH/NADP+ ratio and GSH/GSSG ratio of OT-1 splenocytes; type: cell-based, mouse; details: day 7 or 8, with IL-2; vs T cells not treated with sugar
Description: as §1

[3] = system: MC38 TSA-reactive CD8+ TILs; test: Rapid expansion of TSA-reactive CD8+ TILs from MC38 tumors; type: cell-based, mouse
Description: Sugars were added at the beginning or during the expansion of the TILs, and kept till the end of expansion. On expansion day 9, phenotypes of the expanded T cells were assessed, and the cells were used for adoptive transfer (FIG. 6E). For adoptive transfer, 0.5 million cells (B16-OVA or MC38) were inoculated subcutaneously on each mouse on day 0, Listeria monocytogenes-OVA (LM-OVA) infection 0.5 million CFU/mice on day 1, and blood analysis was recorded on day 7.

TILs from B16-OVA tumor = type: cell-based, mouse; details: day 7 rapid expansion
Description: TILs from B16-OVA tumor were isolated on day10 after inoculation, and Tim-3^−TCF/GFP^+ and Tim-3^+TCF/GFP^− in tetramer positive population were collected by live cell sorting (FIG. 15A). Phenotype features of Tim-3^−TCF/GFP^+ (FIG. 15B) and Tim-3^+TCF/GFP^− (FIG. 15C) were analyzed on day 7 after rapid expansion with feeder cells (TILs/feeder cell: 1/200) in the presence or absence of sugars.
To investigate which population that sugars mainly changed on T cells, B16-OVA cancer cells (7×10^5 cells) were subcutaneously inoculated into the left or right flank of TCF7^GFP mice expressing an EGFP fluorescent reporter from the endogenous Tcf7 locus, which enable us to track the expression of TCF-1 in live cells.

OT-I splenocytes = test: OT-I splenocyte culture with purine/pyrimidine pathway compounds; type: cell-based, mouse; details: CD8+ T cells
Description: We therefore tested if purine and pyrimidine nucleotides have similar effects as N-Acetylneuraminic acid to help maintain less differentiated phenotypes of T cells during expansion. OT-I splenocytes were cultured with 500 nM […] peptide (OVA257-264) for three days at initial cell density of 1×10^6/mL to activate and expand the CD8+ T cell population. Different concentrations of the products or intermediates in purine or pyrimidine de novo synthesis pathways were added on day 3. The tested compounds include, e.g., guanosine, deoxyguanosine, adenosine, deoxyadenosine, inosine, xanthosine, orotidine, uridine, cytidine, deoxycytidine, thymidine, deoxythymidine, 5-Aminoimidazole-4-carboxamide ribonucleotide (AICAR), orotate, and dihydroorotate. The phenotype of expanded T cells were analyzed on day 5.

HA-28z CAR T cells = test: HA-28z (GD2) CAR T cell expansion with sugars; details: 50 mM, 14 days; both CD8^+ and CD4^+ CAR T cells

SMILES: CC(=O)N[C@H]1[C@H]([C@H](O)[C@H](O)CO)OC(O)(C(=O)O)C[C@@H]1O (stereo partly drawn) [Neu5Ac, N-acetylneuraminic acid]
- Tim3^−TCF-1^+ ratio of CD8^+ T cells (%) (OT-1 cells; w/o 2.6): 59.6%
- activity at 50000 µM (OT-1 cells; Mus musculus, Splenocyte, 168 h, OT-1 cells, read-out: Proliferation fold, Normalized to W/O): 143%
- Fold of proliferation, Normalized to W/O (P14 cells; Day6): 2.29 fold
- Tim3^−TCF-1^+ ratio of CD8^+ T cells (%) (P14 cells; Day6, w/o 55.0): 97.4%
- Fold of proliferation, Normalized to W/O (P14 cells; Day9): 1.40 fold
- Tim3^−TCF-1^+ ratio of CD8^+ T cells (%) (P14 cells; Day9, w/o 3.5): 71.3%
- capabilities to control tumor growth by way of tumor volume and survival rate (B16-OVA tumor; treated OT-1 T cells used with anti-PD-1 antibody treatment, vs untreated T cells): significantly better
- tumor infiltrating OT-1 T cell numbers (B16-OVA tumor; treated T cells transferred to B16-OVA mice): increased
- viability and apoptotic characteristics (OT-1 splenocytes [1]; vs T cells not treated with sugar): enhanced viability and differential apoptotic characteristics
- production of IL-2 (OT-1 splenocytes [1]; vs no sugar): significantly greater
- GSH/GSSG ratio (OT-1 splenocytes [2]): greater
- NADPH/NADP+ ratio (OT-1 splenocytes [2]): greater
- ROS (OT-1 splenocytes [2]): significantly less
- cell surface anti-CLA (Cutaneous Lymphocyte-associated Antigen) staining [3]: significant increase
- reversal of sorted Tim-3^+TCF-GFP^− back to Tim-3^−TCF-GFP^+ phenotype (TILs from B16-OVA tumor): partially reverse
- maintenance of progenitor exhausted features of sorted Tim-3-TCF-GFP^+ TILs (TILs from B16-OVA tumor; vs without sugars): maintain more Tim-3^−TCF/GFP^+ cells
- purine and pyrimidine biosynthesis end products and certain intermediates (OT-I splenocytes): upregulated
- CAR T cells proliferated times faster than cells expanded without sugars (HA-28z CAR T cells): 1.5-2 times
